Measurements: ChEMBL document CHEMBL3991601, “The target landscape of clinical kinase drugs” (Science, 2017)
Calls of active or inactive are those of the source. Cut-off read from the data, not from the text of the source, for most assays here: actives have a measured Kd and inactives only a lower limit.

What was measured:
[1] = target: T1, Serine/threonine-protein kinase Nek9 (Homo sapiens, UniProt Q8TD19)
T1 sequence (Q8TD19 whole entry): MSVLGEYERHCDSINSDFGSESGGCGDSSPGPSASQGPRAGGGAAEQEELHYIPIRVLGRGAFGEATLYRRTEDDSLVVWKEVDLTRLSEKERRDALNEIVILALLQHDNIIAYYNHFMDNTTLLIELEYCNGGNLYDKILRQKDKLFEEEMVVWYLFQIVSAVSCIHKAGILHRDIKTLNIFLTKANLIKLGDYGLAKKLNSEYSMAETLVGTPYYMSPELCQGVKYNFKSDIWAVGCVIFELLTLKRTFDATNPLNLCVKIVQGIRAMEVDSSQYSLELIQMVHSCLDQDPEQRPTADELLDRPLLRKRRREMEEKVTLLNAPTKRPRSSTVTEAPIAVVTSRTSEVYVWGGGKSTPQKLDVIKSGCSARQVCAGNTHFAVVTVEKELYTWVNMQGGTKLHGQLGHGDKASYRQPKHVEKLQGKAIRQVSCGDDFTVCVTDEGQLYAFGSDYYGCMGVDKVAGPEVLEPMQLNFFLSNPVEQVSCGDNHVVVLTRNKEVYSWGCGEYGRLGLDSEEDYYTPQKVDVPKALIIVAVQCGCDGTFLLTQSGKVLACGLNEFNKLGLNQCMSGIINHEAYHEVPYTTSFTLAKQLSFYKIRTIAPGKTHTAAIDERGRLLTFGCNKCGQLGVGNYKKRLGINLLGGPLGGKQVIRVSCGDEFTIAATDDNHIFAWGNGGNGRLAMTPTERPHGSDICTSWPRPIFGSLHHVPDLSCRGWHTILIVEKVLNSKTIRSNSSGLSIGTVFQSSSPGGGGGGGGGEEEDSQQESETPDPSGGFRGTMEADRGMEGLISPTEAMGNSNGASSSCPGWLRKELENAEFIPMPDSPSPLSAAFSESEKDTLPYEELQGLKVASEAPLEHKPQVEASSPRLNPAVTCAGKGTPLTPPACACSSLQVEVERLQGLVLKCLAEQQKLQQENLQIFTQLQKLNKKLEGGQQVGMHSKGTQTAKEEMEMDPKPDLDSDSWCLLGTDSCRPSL

[2] = target: T2, Ephrin type-B receptor 3 (Homo sapiens, UniProt P54753)
T2 sequence (P54753 whole entry): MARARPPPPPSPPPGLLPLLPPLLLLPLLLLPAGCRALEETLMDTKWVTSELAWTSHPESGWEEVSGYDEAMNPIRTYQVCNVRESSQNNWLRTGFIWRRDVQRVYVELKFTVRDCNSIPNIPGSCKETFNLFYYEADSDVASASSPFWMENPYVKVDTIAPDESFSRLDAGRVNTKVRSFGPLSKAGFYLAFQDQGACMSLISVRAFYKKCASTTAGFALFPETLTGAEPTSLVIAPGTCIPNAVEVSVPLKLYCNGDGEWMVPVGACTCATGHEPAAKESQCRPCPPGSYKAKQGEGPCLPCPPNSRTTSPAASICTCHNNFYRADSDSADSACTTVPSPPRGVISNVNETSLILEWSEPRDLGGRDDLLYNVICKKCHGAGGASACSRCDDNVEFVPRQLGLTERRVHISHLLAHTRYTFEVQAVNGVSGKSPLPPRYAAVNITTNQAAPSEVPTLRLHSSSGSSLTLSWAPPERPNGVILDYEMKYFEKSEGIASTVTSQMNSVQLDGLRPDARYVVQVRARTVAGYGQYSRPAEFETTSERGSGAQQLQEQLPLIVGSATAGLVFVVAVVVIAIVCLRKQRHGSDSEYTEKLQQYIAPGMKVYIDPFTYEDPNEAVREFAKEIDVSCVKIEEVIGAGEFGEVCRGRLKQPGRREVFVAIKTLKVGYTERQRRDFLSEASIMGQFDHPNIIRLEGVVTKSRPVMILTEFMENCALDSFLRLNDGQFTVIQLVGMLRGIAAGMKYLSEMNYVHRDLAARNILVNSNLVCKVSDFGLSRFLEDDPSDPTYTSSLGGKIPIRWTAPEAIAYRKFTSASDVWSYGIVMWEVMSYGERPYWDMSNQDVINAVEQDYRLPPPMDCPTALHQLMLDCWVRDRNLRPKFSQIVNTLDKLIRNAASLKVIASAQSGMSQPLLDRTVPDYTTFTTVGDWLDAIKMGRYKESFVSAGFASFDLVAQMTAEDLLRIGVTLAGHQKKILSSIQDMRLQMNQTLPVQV

[3] = target: T3, Serine/threonine-protein kinase D3 (Homo sapiens, UniProt O94806)
T3 sequence (O94806 whole entry): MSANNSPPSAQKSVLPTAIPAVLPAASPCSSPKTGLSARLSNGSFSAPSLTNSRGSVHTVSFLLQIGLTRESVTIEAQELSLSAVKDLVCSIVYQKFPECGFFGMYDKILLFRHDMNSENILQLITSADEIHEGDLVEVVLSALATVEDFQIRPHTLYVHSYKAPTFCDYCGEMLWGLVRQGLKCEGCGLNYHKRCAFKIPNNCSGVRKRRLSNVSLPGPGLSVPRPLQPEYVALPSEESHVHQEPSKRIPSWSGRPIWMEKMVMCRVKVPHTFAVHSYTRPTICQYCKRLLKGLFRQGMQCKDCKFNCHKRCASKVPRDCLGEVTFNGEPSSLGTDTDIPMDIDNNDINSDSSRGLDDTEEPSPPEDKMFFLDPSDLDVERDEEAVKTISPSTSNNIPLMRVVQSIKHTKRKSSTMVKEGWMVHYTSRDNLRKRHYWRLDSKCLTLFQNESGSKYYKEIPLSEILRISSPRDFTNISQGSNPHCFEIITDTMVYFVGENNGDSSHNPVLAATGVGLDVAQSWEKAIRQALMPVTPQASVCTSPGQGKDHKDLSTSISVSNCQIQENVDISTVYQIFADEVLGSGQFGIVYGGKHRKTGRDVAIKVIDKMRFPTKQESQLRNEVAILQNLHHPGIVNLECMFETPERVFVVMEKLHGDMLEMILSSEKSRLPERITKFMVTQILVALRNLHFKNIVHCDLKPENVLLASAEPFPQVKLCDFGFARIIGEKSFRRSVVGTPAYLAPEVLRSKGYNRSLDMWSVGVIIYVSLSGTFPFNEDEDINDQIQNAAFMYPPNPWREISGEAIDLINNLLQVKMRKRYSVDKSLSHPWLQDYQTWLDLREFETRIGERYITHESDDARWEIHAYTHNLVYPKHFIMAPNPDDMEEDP

[4] = target: Cyclin-dependent kinase 5 (Homo sapiens, UniProt Q00535)
Cyclin-dependent kinase 5, sequence (Q00535 whole entry): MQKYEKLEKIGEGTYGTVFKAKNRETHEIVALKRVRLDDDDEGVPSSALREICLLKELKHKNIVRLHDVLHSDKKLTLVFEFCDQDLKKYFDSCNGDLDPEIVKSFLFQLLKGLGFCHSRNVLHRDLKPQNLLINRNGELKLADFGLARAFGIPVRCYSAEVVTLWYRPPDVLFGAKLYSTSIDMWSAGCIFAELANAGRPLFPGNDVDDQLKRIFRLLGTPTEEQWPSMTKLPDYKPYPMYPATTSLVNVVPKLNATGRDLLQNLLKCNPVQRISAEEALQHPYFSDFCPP

[5] = target: RAC-alpha serine/threonine-protein kinase (Homo sapiens, UniProt P31749)
RAC-alpha serine/threonine-protein kinase, sequence (P31749 whole entry): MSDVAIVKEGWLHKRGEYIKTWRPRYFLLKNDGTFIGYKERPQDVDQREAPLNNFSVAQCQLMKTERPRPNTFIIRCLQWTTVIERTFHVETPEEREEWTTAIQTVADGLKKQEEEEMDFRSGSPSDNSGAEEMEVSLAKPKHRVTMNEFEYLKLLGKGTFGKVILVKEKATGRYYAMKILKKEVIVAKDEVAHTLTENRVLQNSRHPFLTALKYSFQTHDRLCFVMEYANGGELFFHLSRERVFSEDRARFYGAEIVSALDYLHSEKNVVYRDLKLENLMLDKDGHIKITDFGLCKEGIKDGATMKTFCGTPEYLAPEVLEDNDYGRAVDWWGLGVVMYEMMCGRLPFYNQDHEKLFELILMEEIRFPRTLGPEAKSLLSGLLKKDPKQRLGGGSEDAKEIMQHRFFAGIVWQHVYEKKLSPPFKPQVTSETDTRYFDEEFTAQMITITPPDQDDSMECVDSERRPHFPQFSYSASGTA

[6] = target: Mitogen-activated protein kinase kinase kinase 4 (Homo sapiens, UniProt Q9Y6R4)
Mitogen-activated protein kinase kinase kinase 4, sequence (Q9Y6R4 whole entry): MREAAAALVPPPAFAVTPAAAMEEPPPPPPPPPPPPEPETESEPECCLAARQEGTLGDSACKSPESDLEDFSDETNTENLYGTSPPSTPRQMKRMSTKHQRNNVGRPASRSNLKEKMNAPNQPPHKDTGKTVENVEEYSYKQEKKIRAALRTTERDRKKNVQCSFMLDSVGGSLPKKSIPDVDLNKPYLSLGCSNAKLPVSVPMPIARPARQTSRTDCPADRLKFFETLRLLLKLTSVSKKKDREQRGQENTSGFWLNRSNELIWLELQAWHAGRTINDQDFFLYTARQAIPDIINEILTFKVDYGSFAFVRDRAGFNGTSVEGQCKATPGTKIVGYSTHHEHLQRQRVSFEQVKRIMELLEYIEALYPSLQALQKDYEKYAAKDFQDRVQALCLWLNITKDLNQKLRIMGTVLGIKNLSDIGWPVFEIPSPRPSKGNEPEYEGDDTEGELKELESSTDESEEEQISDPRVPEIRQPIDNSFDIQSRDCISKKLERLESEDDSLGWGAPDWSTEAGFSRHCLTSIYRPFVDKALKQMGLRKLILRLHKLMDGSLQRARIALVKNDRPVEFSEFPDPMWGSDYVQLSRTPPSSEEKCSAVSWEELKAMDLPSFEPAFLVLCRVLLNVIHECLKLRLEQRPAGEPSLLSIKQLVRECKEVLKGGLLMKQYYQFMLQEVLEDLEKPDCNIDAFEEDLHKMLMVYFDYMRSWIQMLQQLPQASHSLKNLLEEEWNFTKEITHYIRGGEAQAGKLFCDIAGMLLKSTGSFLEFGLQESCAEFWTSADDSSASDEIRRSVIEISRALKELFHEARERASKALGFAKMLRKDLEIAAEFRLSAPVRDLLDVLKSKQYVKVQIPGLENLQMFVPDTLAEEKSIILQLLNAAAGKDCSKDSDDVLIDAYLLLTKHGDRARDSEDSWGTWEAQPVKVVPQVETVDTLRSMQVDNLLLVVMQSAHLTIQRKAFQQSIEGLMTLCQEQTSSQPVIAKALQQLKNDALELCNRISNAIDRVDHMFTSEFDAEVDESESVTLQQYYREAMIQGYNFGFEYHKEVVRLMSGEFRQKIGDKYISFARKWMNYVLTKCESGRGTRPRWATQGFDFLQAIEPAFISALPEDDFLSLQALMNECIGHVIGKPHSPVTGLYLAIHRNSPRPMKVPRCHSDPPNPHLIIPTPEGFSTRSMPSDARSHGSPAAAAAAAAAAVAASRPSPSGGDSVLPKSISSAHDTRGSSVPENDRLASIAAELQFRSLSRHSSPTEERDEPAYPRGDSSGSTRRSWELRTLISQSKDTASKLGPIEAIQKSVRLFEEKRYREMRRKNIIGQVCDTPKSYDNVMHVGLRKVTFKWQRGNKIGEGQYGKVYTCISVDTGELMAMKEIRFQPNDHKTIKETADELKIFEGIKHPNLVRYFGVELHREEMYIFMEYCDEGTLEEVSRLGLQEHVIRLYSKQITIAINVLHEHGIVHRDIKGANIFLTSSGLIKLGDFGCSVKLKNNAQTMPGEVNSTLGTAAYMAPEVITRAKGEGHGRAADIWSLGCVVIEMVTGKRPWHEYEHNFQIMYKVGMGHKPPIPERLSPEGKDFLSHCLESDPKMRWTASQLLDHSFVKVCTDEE

[7] = target: RAC-gamma serine/threonine-protein kinase (Homo sapiens, UniProt Q9Y243)
RAC-gamma serine/threonine-protein kinase, sequence (Q9Y243 whole entry): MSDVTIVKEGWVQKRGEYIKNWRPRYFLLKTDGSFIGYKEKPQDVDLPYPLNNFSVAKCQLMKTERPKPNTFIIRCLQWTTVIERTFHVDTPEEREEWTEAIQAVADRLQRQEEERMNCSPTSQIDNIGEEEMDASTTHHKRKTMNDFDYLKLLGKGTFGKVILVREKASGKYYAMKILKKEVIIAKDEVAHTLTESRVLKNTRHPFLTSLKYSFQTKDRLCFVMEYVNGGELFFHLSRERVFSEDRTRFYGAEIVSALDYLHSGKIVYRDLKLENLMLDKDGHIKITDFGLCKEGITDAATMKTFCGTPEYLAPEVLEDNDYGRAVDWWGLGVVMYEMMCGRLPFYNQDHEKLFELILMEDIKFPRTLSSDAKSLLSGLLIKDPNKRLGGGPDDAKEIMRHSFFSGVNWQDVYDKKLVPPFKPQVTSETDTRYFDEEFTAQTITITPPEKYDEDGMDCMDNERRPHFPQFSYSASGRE
Note: in the data inactive means no Kd found up to 30 µM.

Kd [2]	Kd [3]	Kd [4]	Kd [5]	Kd [6]	Kd [7]	Compound	Kd [1]
> 30 µM (inactive)	> 30 µM (inactive)	> 30 µM (inactive)	> 30 µM (inactive)	> 30 µM (inactive)		C[C@@H](Nc1cc(F)cc(F)c1)c1cc(C(=O)N(C)C)cc2c(=O)cc(N3CCOCC3)oc12 [AZD-8186]	> 30 µM (inactive)
> 30 µM (inactive)	> 30 µM (inactive)	> 30 µM (inactive)	> 30 µM (inactive)	> 30 µM (inactive)	> 30 µM (inactive)	Cc1cc([C@@H](C)Nc2ccccc2C(=O)O)c2nc(N3CCOCC3)cc(=O)n2c1 [AZD-6482]	> 30 µM (inactive)
> 30 µM (inactive)	> 30 µM (inactive)	> 30 µM (inactive)	> 30 µM (inactive)	> 30 µM (inactive)	> 30 µM (inactive)	CCS(=O)(=O)N1CC(CC#N)(n2cc(-c3ncnc4[nH]ccc34)cn2)C1 [BARICITINIB]	> 30 µM (inactive)
> 30 µM (inactive)	> 30 µM (inactive)	> 30 µM (inactive)	> 30 µM (inactive)	> 30 µM (inactive)	> 30 µM (inactive)	CN1N=C(N)c2cn([C@@H]3O[C@H](COP(=O)(O)O)[C@@H](O)[C@H]3O)c3ncnc1c23 [TRICIRIBINE PHOSPHATE]	> 30 µM (inactive)
> 30 µM (inactive)	> 30 µM (inactive)	> 30 µM (inactive)	> 30 µM (inactive)	> 30 µM (inactive)	> 30 µM (inactive)	CNC(=O)c1cc(Oc2ccc(NC(=O)Nc3ccc(Cl)c(C(F)(F)F)c3)c(F)c2)ccn1 [REGORAFENIB]	> 30 µM (inactive)
> 30 µM (inactive)	2.96 µM (active)	> 30 µM (inactive)	> 30 µM (inactive)	> 30 µM (inactive)	> 30 µM (inactive)	O=C(Nc1ccc(-c2ccnc(Nc3ccc(N4CCOCC4)cc3)n2)cc1)C1CCCN1 (stereo unspecified) [XL-019]	2.19 µM (active)
> 30 µM (inactive)	> 30 µM (inactive)	> 30 µM (inactive)	> 30 µM (inactive)	> 30 µM (inactive)	> 30 µM (inactive)	CNS(=O)(=O)Nc1nccc(Cc2c(C)c3ccc(Oc4ncccn4)cc3oc2=O)c1F [AVUTOMETINIB]	> 30 µM (inactive)
> 30 µM (inactive)				> 30 µM (inactive)		Cc1cc(Nc2cc(N3CCN(C)CC3)nc(/C=C/c3ccccc3)n2)n[nH]1 [ENMD-2076]	
> 30 µM (inactive)	> 30 µM (inactive)	> 30 µM (inactive)	> 30 µM (inactive)	> 30 µM (inactive)	> 30 µM (inactive)	CCCS(=O)(=O)Nc1ccc(F)c(C(=O)c2c[nH]c3ncc(-c4ccc(Cl)cc4)cc23)c1F [VEMURAFENIB]	> 30 µM (inactive)
> 30 µM (inactive)	> 30 µM (inactive)	> 30 µM (inactive)	> 30 µM (inactive)	> 30 µM (inactive)	> 30 µM (inactive)	COc1cc2nccc(Oc3ccc(NC(=O)NC4CC4)c(Cl)c3)c2cc1C(N)=O [LENVATINIB]	> 30 µM (inactive)
> 30 µM (inactive)	> 30 µM (inactive)	> 30 µM (inactive)	> 30 µM (inactive)	> 30 µM (inactive)	> 30 µM (inactive)	Cc1cc2c(F)c(Oc3ncnn4cc(OC[C@@H](C)OC(=O)[C@H](C)N)c(C)c34)ccc2[nH]1 [BRIVANIB ALANINATE]	> 30 µM (inactive)
> 30 µM (inactive)	> 30 µM (inactive)	> 30 µM (inactive)	> 30 µM (inactive)	> 30 µM (inactive)	> 30 µM (inactive)	Cc1ccc(S(=O)(=O)Nc2nc3ccccc3nc2Nc2ccc3nsnc3c2)cc1	> 30 µM (inactive)
> 30 µM (inactive)	> 30 µM (inactive)	> 30 µM (inactive)	> 30 µM (inactive)	> 30 µM (inactive)		C[C@@H](c1ccc2nccn2c1)n1nnc2ncc(-c3cnn(C)c3)nc21 [SAVOLITINIB]	> 30 µM (inactive)
> 30 µM (inactive)	> 30 µM (inactive)	> 30 µM (inactive)		> 30 µM (inactive)		Cn1ncc(Cl)c1-c1cc(C(=O)N[C@H](CN)Cc2cccc(F)c2)sc1Cl [AFURESERTIB]	> 30 µM (inactive)
> 30 µM (inactive)			> 30 µM (inactive)	> 30 µM (inactive)	> 30 µM (inactive)	CCc1cnn2c(NCc3ccc[n+]([O-])c3)cc(N3CCCC[C@H]3CCO)nc12 [DINACICLIB]	> 30 µM (inactive)
> 30 µM (inactive)				> 30 µM (inactive)		Cc1nc(N)sc1-c1ccnc(Nc2ccc(N3CCOCC3)cc2)n1 [CYC-116]	0.133 µM (active)
> 30 µM (inactive)			> 30 µM (inactive)	> 30 µM (inactive)	> 30 µM (inactive)	OCCn1cc(-c2cnc3nnn(Cc4ccc5ncccc5c4)c3n2)cn1 [PF-04217903]	> 30 µM (inactive)

Compound	Kd [2]	Kd [3]	Kd [4]	Kd [5]	Kd [6]	Kd [7]	Kd [1]
O=C(Nc1cccc(Cl)c1)Nc1ncc(CCNc2ncnc3ccsc23)s1 [SNS-314]	> 30 µM (inactive)				> 30 µM (inactive)		> 30 µM (inactive)
COC(=O)[C@@]1(O)C[C@H]2O[C@]1(C)n1c3ccccc3c3c4c(c5c6ccccc6n2c5c31)C(=O)NC4 [K-252A]	> 30 µM (inactive)		0.911 µM (active)	> 30 µM (inactive)	> 30 µM (inactive)	> 30 µM (inactive)	> 30 µM (inactive)
